For six compounds, IC50, EC50 and AC50 results are on record in ChEMBL document CHEMBL1201862, “PubChem BioAssay data set” (2004).

Assay [1] addresses T1, Leucine aminopeptidase (Plasmodium falciparum 3D7, UniProt Q8IL11).
T1 sequence (Q8IL11 whole entry): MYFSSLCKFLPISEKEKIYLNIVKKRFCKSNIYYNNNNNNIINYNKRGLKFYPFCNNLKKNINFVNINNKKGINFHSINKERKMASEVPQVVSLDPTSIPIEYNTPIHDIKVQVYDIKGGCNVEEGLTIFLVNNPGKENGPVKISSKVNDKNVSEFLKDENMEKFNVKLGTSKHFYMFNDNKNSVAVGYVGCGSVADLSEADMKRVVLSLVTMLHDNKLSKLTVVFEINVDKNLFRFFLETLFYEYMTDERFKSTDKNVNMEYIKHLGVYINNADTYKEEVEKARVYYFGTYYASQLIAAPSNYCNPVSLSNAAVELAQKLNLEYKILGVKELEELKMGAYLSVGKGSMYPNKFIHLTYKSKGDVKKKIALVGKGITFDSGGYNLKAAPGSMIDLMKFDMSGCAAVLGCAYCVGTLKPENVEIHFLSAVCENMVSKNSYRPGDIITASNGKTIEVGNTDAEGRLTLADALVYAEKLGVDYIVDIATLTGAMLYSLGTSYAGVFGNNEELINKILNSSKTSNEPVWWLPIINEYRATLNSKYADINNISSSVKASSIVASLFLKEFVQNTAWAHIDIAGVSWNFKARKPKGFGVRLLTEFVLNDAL
The assay can be described thus: P. falciparum M17LAP inhibitors, primary screen, biochemical, fluorogenic H-Leu-NHMec substrate, 1536-well (AID 1619). Format: functional.

Assay [2] in a line: inhibitors of intracellular T. cruzi replication, confirmation, NIH3T3 host cells, beta-gal luminescence (AID 2044).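 Further: intracellular parasites grown in NIH/3T3 mouse fibroblasts as host cells; luminescent beta-galactosidase reporter signal from transgenic T. cruzi replicating inside host cells; inhibitors lower the luminescence signal.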 The class given is functional, cell-based.
Assay [3] is described as follows: cytotoxicity toward NIH3T3 fibroblasts, dose response, counter-screen, cell-based, ATP luminescence, mouse fibroblasts (AID 2010).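 Further: cells exposed to compound for about 90 hours before reading.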 The class given is functional.
Assay [4] deals with Beta-galactosidase (Escherichia coli, UniProt Q8VNN2). The experiment in a line: PubChem AID 485352. Format: functional.
Beta-galactosidase, sequence (Q8VNN2 whole entry): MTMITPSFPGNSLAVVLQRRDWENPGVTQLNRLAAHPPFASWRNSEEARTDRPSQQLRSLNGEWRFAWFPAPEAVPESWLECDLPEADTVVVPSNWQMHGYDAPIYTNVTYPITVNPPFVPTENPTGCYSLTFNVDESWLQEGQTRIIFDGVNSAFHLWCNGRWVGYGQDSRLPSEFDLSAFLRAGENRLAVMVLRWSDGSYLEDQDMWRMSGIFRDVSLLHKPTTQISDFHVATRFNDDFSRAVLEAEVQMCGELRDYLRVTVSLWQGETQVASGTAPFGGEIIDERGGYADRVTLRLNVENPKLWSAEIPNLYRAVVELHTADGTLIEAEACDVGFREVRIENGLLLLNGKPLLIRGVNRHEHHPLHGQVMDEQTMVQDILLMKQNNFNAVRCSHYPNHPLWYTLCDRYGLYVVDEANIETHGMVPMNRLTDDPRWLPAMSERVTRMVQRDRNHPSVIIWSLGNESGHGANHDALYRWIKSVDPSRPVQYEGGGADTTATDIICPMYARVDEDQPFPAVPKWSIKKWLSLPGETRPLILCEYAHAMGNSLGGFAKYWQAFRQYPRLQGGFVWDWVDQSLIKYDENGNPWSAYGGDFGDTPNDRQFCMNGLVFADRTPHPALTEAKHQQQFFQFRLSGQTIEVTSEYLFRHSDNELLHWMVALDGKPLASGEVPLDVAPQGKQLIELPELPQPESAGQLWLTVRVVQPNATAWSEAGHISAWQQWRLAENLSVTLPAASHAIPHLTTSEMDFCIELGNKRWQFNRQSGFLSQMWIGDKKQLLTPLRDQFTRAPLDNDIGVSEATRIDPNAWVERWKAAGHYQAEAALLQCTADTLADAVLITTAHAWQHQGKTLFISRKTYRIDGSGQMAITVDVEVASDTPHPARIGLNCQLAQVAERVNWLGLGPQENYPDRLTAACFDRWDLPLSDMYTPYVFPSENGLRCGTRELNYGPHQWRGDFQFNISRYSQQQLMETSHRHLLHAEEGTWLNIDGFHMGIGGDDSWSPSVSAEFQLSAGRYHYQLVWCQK
For assay [5], the system named is INS1. The assay can be described thus: beta cell apoptosis inhibitors, cytokine rescue, dose response, luminescence, retest (AID 449756).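 Further: cell death triggered by IL-1 beta plus TNF-alpha plus IFN-gamma mixture; protective hits raise ATP signal compared with cytokine alone wells.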 The class given is functional, cell-based. The following applies: Rattus norvegicus.
Assay [6] concerns the target T2, Short transient receptor potential channel 4 (Mus musculus, UniProt Q9QUQ5).
T2 sequence (Q9QUQ5 whole entry): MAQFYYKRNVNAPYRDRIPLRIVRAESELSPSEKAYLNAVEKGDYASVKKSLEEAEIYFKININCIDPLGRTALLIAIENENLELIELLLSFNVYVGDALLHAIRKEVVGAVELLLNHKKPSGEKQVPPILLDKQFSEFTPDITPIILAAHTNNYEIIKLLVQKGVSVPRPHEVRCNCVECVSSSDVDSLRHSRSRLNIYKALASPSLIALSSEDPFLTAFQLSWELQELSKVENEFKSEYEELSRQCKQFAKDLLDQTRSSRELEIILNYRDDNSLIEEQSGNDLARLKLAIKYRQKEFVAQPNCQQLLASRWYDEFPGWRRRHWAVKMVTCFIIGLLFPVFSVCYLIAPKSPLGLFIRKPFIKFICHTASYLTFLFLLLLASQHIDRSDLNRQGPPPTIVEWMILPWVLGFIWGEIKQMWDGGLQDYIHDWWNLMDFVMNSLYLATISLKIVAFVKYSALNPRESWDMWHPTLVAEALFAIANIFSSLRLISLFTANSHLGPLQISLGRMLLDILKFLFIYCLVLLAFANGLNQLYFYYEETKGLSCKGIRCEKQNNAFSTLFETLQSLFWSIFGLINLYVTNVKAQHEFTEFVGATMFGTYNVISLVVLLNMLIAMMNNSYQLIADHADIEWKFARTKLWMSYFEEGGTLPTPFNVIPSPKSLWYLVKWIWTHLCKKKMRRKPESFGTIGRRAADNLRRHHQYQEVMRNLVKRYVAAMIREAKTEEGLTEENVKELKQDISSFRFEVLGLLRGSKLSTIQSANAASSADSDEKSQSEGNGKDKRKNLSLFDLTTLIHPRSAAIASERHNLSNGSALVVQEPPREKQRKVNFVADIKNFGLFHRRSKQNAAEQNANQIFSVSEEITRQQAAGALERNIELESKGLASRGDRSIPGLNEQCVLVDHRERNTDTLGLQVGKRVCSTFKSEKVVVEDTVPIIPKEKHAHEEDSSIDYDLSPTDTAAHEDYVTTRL
The assay can be described thus: mouse TRPC4 channel activators, dose response, cell-based, HEK293 TRPC4/mu-opioid, Fluo-4 calcium (AID 434937). Format: functional.

The target in assay [7] is Type-1 angiotensin II receptor (Homo sapiens, UniProt P30556). The assay can be described thus: AT1 receptor antagonists, dose response, selectivity assay for APJ receptor antagonist project, cell-based, uHTS hits (AID 463214).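 Further: antagonist potency against angiotensin II stimulated AT1 response.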 The class given is functional.
Type-1 angiotensin II receptor, sequence (P30556 whole entry): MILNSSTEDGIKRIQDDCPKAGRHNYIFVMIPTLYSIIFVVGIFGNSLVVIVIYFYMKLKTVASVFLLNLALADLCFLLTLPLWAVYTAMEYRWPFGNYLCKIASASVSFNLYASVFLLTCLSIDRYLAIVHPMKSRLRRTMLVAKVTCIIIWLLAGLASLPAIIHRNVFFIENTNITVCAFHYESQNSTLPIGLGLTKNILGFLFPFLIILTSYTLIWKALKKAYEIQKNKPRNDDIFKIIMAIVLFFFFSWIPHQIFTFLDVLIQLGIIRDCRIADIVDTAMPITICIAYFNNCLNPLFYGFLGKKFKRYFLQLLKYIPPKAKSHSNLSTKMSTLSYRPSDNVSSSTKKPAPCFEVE
Assay [8] deals with Candida albicans. The experiment in a line: growth inhibition of resistant C. albicans, dose response, CaCi-8 strain, fluconazole, dry powder, set 4 (AID 488950). Format: functional, organism-based.
Assay [9] has as its system Candida albicans. The experiment in a line: fluconazole resistance reversal in C. albicans, dose response, CaCi-2 strain, Alamar Blue, dry powder, set 4 (AID 488943). Format: functional, organism-based. A general note: Alamar Blue is a resazurin reagent that responds to reducing activity.
In assay [10] the test system is Candida albicans. The experiment in a line: Candida albicans growth inhibition, agent alone, dose response, counter-screen for reversing antifungal drug resistance, CaCi-2 strain, no fluconazole, dry powder, set 4 (AID 488932). Format: functional, organism-based. For orientation: A counterscreen serves to expose hits that act by an unwanted route or on another target.

The subject of assay [11] is NIH3T3. The assay can be described thus: cytotoxicity in NIH-3T3 fibroblasts, dose response, cytotoxicity control for antifungal drug resistance project, cell-based, Alamar Blue, fluconazole, dry powder (AID 488809). Format: functional. The following applies: Mus musculus.
The test system of assay [12] is Candida albicans. The experiment in a line: growth inhibition of resistant C. albicans, dose response, CaCi-8, fluconazole, Alamar Blue, dry powder (AID 488807). Format: functional, organism-based.
The subject of assay [13] is INS1. The assay can be described thus: inhibitors of cytokine-induced nitrite release, dose response, cell-based, Griess absorbance, INS-1E, dry powder, set 2 (AID 488868). Format: functional. The following applies: Rattus norvegicus. For orientation: The Griess reaction detects nitrite, a stable product of nitric oxide.
Assay [14] can be described thus: inhibitors of cytokine-induced nitrite release, dose response, cell-based, Griess absorbance, INS-1E, dry powder, set 3 (AID 488870). The class given is functional. The following applies: Rattus norvegicus.
Assay [15] addresses Paired box protein Pax-8 (Homo sapiens, UniProt Q06710). The assay can be described thus: inhibitors of PAX8-driven TPO luciferase reporter, dose response, RMG-I cells, cherry-pick (AID 687027).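 Further: luciferase reporter driven by Pax8 target thyroperoxidase promoter measured by SteadyGlo luminescence.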 Format: functional, cell-based.
Assay [16] deals with INS1. The assay can be described thus: protection from cytokine-driven beta-cell apoptosis, dose response, JC-1 fluorescence, INS-1E, dry powder, set 2 (AID 488867). The following applies: Rattus norvegicus. Format: functional, cell-based.
For assay [17], the target named is Hexokinase-1 (Homo sapiens, UniProt P19367). The assay can be described thus: SAR analysis of small molecule inhibitors of hexokinase domain containing I (HKDC1) in the hexokinase 1 selectivity assay. [Related pubchem assays (depositor defined):AID493160, AID493190]. The class given is functional.
Hexokinase-1, sequence (P19367 whole entry, the tested form may be a part): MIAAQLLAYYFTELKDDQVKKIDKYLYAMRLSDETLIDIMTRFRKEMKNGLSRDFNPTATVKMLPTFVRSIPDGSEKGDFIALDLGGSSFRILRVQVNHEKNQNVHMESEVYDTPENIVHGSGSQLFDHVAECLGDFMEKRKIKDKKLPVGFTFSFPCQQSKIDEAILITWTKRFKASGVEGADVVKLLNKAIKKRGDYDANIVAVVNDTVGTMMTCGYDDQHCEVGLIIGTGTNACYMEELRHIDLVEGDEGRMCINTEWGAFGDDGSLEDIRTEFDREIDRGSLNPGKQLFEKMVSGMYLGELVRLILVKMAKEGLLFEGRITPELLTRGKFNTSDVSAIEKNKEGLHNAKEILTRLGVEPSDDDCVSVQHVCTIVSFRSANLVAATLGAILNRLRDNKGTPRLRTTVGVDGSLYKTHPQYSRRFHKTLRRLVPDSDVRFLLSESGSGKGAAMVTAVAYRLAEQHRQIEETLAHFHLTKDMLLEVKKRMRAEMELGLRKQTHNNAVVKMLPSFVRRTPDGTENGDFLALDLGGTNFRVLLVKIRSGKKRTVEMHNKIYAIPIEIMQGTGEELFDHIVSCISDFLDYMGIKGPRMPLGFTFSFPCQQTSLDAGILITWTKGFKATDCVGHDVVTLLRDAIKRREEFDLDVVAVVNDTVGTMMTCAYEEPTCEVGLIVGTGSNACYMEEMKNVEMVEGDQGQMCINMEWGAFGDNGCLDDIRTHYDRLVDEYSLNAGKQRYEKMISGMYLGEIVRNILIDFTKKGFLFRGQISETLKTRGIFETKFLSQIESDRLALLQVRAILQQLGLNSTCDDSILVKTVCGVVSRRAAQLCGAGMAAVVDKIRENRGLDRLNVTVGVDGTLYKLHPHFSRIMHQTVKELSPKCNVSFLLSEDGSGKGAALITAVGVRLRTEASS
The target of assay [18] is T3, Hexokinase HKDC1 (Homo sapiens, UniProt Q2TB90).
T3 sequence (Q2TB90 whole entry): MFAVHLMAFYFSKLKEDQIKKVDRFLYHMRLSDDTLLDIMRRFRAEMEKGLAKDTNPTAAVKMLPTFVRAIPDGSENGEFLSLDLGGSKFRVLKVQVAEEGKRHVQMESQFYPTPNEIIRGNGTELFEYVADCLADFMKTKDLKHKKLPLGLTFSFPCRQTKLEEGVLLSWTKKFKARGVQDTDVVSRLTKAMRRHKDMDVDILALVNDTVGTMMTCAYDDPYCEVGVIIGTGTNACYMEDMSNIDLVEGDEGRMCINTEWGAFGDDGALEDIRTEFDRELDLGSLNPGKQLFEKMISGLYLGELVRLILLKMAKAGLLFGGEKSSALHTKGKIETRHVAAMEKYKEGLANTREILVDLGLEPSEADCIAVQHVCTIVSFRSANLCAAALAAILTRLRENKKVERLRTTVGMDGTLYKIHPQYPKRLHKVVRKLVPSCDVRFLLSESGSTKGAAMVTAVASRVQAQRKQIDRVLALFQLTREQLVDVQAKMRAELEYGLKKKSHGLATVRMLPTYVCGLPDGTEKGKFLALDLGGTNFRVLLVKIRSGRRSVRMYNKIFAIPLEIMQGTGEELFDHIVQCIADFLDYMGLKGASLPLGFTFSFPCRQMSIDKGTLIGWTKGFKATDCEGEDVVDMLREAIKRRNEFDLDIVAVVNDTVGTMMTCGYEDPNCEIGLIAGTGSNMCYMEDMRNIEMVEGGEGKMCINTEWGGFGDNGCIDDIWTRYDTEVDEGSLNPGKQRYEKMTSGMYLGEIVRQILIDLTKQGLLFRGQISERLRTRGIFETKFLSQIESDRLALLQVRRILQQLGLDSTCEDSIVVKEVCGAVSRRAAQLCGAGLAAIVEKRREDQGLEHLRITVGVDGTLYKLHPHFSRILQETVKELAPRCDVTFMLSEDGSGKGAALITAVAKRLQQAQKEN
The assay can be described thus: SAR analysis of small molecule inhibitors of hexokinase domain containing I (HKDC1). [Related pubchem assays (depositor defined):AID493160, AID493190]. The class given is functional.

Assay [19] can be described thus: inhibitors of firefly luciferase expression or activity, dose response, H4 neuroglioma cells, luminescence (AID 1990). Format: functional, cell-based.
Assay [20] can be described thus: inhibitors of SNCA 5'UTR-driven reporter translation, confirmation, H4 neuroglioma cells, luminescence (AID 1988). The class given is functional, cell-based.
Assay [21] addresses T4, Microphthalmia-associated transcription factor (Homo sapiens, UniProt O75030).
T4 sequence (O75030 whole entry): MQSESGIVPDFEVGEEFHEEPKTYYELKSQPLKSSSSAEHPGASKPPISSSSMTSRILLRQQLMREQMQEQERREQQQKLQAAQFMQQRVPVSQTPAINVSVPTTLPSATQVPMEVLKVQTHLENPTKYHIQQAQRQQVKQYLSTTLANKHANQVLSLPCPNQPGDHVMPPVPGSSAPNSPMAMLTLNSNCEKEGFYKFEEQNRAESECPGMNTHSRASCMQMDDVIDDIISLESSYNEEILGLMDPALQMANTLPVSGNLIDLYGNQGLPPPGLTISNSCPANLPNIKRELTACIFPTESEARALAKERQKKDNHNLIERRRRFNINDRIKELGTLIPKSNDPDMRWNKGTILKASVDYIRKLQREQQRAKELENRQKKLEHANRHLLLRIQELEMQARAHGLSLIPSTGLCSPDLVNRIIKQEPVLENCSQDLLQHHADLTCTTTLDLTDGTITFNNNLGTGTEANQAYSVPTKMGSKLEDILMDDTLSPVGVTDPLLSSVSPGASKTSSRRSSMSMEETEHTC
The assay can be described thus: TRPM1 promoter luciferase signal decrease, dose response, MITF inhibitor project, cell-based, SK-MEL-5, cherry-picked, set 3 (AID 493073).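 Further: SK-MEL-5 melanoma cells with luciferase driven by the MITF target TRPM1 promoter.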 Format: functional.

Assay [22] concerns the target Apoptotic protease-activating factor 1 (Homo sapiens, UniProt O14727). Format: functional.
The nature of assay [23]: Luminescence Cell-Based Dose Response HTS to Identify Inhibitors of 5'UTR Stem-Loop Driven Prion Protein mRNA Translation in H4 Neuroglioblastoma Cells. [Related pubchem assays: 1827 (Project Summary), 1813 (Primary HTS)]. Format: functional.
Assay [24] addresses Beta-2 adrenergic receptor (Homo sapiens, UniProt P07550). The experiment in a line: beta2AR agonists driving receptor internalization, dose response, cell-based, FAP fluorogen, flow cytometry, cherry pick 1 (AID 588763). Format: functional.

Active and inactive are the calls of the source.

Beta-2 adrenergic receptor, sequence (P07550 whole entry): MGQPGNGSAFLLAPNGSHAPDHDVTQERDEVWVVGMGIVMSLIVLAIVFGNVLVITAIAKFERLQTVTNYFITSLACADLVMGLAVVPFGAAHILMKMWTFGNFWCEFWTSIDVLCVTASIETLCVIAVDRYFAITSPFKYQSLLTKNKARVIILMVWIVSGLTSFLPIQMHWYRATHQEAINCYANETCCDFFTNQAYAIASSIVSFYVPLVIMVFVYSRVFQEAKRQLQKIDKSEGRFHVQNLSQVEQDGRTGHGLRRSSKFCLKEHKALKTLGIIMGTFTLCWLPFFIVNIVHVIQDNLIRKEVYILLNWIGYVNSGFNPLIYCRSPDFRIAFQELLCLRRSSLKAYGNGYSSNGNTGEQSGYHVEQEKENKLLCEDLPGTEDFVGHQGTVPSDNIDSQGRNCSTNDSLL
Paired box protein Pax-8, sequence (Q06710 whole entry): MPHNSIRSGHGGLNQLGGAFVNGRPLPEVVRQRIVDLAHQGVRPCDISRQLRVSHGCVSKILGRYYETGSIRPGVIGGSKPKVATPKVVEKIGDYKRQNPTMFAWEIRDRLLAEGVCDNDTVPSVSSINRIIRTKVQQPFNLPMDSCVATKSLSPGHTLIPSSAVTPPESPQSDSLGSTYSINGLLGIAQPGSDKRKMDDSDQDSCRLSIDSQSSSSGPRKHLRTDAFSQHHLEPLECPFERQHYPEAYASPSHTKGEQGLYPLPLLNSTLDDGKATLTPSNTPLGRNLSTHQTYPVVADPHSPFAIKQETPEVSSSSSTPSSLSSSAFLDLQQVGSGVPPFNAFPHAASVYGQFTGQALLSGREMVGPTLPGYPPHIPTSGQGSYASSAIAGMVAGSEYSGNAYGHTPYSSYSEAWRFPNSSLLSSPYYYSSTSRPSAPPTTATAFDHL
Apoptotic protease-activating factor 1, sequence (O14727 whole entry): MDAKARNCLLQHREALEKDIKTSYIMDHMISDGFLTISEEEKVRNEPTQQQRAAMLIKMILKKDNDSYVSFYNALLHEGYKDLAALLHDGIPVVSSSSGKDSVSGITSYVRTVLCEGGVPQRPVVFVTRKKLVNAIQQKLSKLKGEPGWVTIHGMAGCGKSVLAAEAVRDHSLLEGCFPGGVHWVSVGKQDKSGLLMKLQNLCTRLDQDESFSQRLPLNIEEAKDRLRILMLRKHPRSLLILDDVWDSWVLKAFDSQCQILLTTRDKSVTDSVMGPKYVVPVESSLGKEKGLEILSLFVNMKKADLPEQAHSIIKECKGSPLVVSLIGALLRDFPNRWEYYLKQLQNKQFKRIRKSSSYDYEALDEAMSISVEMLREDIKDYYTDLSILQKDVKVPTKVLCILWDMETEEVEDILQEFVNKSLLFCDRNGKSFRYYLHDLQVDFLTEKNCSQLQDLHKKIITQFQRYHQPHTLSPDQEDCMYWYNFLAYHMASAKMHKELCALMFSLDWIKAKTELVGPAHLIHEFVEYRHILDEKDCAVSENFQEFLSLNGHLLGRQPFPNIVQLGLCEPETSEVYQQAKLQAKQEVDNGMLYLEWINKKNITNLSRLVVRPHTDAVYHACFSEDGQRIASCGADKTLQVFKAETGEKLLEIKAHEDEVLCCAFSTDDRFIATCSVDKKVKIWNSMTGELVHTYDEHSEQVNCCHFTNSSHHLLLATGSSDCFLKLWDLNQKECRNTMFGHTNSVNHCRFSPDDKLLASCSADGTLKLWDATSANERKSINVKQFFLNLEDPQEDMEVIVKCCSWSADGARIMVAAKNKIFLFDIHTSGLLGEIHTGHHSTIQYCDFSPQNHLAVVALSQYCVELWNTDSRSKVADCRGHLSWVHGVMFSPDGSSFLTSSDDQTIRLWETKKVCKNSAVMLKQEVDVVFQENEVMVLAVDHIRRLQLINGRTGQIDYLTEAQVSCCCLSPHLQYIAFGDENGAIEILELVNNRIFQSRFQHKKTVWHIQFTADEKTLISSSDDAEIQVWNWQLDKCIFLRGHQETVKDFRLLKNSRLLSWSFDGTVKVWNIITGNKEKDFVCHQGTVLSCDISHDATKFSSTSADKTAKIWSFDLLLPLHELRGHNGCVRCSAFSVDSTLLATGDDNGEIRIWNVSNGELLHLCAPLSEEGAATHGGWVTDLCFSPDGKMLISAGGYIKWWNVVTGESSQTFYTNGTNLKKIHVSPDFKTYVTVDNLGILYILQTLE

Broadly, the IC50 is the concentration at which inhibition is half-maximal. Usually EC50 stands for the concentration giving half of the maximal effect. For orientation: AC50 means the midpoint of the concentration-response curve, whichever way the signal moves. Turning to `CC(C)(C)c1cc(CCC(=O)NNC(=S)NC(=O)c2ccccc2)cc(C(C)(C)C)c1O`, the figures for the IC50 in assay [1] and in assay [7] were 32.2 µM (active) and 35.5 µM (not active), respectively. The EC50 in assay [2] is 0.382 µM (active); in [3], 15.7 µM (active); in assay [4] it was > 40 µM (inactive); in assay [6] it was 3.35 µM (active). In addition, the AC50 in [5] is 3.99 µM (active).
`O=C(c1csc2ccccc12)N1CCN(c2ccnc3cc(Cl)ccc23)CC1`: the AC50 is 1.69 µM (active) in [8]; 0.946 µM (active) in assay [9]; 106 µM (active) in assay [10]; 4.47 µM (active) in assay [11]; 2.72 µM (active) in [12].
On to `Cc1ccc(S(=O)(=O)N(C)C[C@H]2Oc3c(NC(=O)Nc4cccc5ccccc45)cccc3C(=O)N([C@@H](C)CO)C[C@@H]2C)cc1`, for which the AC50 in assay [13] is 45.6 µM (active); in assay [14] it was > 195 µM (inactive); in [15], 5.94 µM (active); in assay [16], 38.8 µM (active).
Take `COc1ccc(/C=C/c2nc3ccccc3c(=O)n2Cc2ccccc2)cc1OC`: the IC50 in [17] and in [18] was > 80 µM (inactive) each time.
Consider `CC(=O)Nc1ccc(S(=O)(=O)NC2=C(N3CCN(C)CC3)C(=O)c3ccccc3C2=O)cc1`, for which the results for the EC50 in assay [19], in [20] and in assay [23] were 15.6 µM (active), 11.1 µM (active) and > 120 µM (not active), respectively. For the same compound, the AC50 is 3.65 µM (active) in [21] and 3.99 µM (active) in assay [5]. Moreover, in assay [22], the half-inhibitory concentration (IC50) was 29.7 µM (active).
On to `Nc1cccc(C#Cc2ccc3c(=O)c4ccccc4oc3c2)c1`, for which the EC50 in assay [24] is 0.245 µM (active).
